Reference: patent US8431593B2, “Heteroaryl amide derivatives” (H. Lundbeck A/S, priority 2006, dated 2013)

Target: T1, P2X7 receptor (Homo sapiens, UniProt Q99572)
T1 construct: host or cells: SH-SY5Y
T1 sequence (Q99572 1-595): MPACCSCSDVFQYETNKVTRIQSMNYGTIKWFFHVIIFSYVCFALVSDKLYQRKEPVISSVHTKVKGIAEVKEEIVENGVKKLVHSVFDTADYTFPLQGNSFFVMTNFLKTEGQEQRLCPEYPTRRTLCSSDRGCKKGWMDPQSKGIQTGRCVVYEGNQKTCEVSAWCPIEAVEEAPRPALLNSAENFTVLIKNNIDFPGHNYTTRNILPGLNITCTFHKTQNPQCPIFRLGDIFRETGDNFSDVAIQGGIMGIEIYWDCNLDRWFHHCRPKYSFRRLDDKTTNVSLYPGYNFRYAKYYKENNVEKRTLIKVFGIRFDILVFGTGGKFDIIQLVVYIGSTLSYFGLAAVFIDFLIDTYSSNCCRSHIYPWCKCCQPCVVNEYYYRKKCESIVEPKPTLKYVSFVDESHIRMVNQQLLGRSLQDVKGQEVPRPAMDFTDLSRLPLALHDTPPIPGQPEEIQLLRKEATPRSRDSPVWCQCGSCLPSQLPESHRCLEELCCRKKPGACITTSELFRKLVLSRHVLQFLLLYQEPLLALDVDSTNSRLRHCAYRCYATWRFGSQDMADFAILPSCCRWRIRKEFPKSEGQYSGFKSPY
Assay: P2X7 calcium mobilization assay, high throughput, antagonist activity (Example 4A)
Assay type: cell-based
Conditions: not given
Summary of the method: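 100,000 cells/well, plated day -1. Dye 1 h → rinse → compound 1 h, RT → FLIPR^TETRA Ca2+ mobilization. Max RFU minus mean negative control (no agonist); mean agonist-well max as positive control.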

Row | Compound | IC50 [µM]
1 | NCCNCc1cn2c(C(=O)NCC34CC5CC(CC(C5)C3)C4)cccc2n1 [Compound 122, N-(adamantan-1-ylmethyl)-2-{[(2-aminoethyl)amino]methyl}imi-dazo[1,2-a]pyridine-5-carboxamide] | < 2
2 | NCCCNCc1cn2c(C(=O)NCC34CC5CC(CC(C5)C3)C4)cccc2n1 [Compound 123, N-(adamantan-1-ylmethyl)-2-{[(3-aminopropyl)amino]methyl}imi-dazo[1,2-a]pyridine-5-carboxamide] | < 2
3 | CNCCN(C)Cc1cn2c(C(=O)NCC34CC5CC(CC(C5)C3)C4)cccc2n1 [Compound 124, N-(adamantan-1-ylmethyl)-2-({methyl[2-(methylamino)eth-yl]amino}methyl)imi-dazo[1,2-a]pyridine-5-carboxamide] | < 2
4 | O=C(NCC12CC3CC(CC(C3)C1)C2)c1cccc2nc(CNCCN3CCOCC3)cn12 [Compound 125, N-(adamantan-1-ylmethyl)-2-{[(2-morpholin-4-ylethyl)amino]methyl}imi-dazo[1,2-a]pyridine-5-carboxamide] | < 2
5 | O=C(NCC12CC3CC(CC(C3)C1)C2)c1cccc2nc(CNCCN3CCCC3)cn12 [Compound 126, N-(adamantan-1-ylmethyl)-2-{[(2-pyrrolidin-1-ylethyl)amino]methyl}imi-dazo[1,2-a]pyridine-5-carboxamide] | < 2
6 | CN(C)CCOCc1cn2c(C(=O)NCC34CC5CC(CC(C5)C3)C4)cccc2n1 [Compound 127, N-(adamantan-1-ylmethyl)-2-{[2-(dimethylamino)eth-oxy]methyl}imi-dazo[1,2-a]pyridine-5-carboxamide] | < 2
7 | CCOC(=O)c1cn2c(C(=O)NCC(CC(C)C)c3ccccc3)cccc2n1 (stereo not drawn) [Compound 128, ethyl 5-[(4-methyl-2-phenyl-pentyl)carbamoyl]imi-dazo[1,2-a]pyridine-2-carboxylate] | < 2
8 | CN(CCO)Cc1cn2c(C(=O)NCC34CC5CC(CC(C5)C3)C4)cccc2n1 [Compound 131, N-(adamantan-1-ylmethyl)-2-{[(2-hydroxyethyl)(meth-yl)amino]methyl}imi-dazo[1,2-a]pyridine-5-carboxamide] | < 2
9 | CC(C)N(CCO)Cc1cn2c(C(=O)NCC34CC5CC(CC(C5)C3)C4)cccc2n1 [Compound 132, N-(adamantan-1-ylmethyl)-2-{[(2-hydroxyethyl)(iso-propyl)amino]methyl}imi-dazo[1,2-a]pyridine-5-carboxamide] | < 2
10 | COCCN(C)Cc1cn2c(C(=O)NCC34CC5CC(CC(C5)C3)C4)cccc2n1 [Compound 133, N-(adamantan-1-ylmethyl)-2-{[(2-methoxyethyl)(meth-yl)amino]methyl}imi-dazo[1,2-a]pyridine-5-carboxamide] | < 2
11 | O=C(NCC12CC3CC(CC(C3)C1)C2)c1cccc2nc(CN(CCO)CCO)cn12 [Compound 136, N-(adamantan-1-ylmethyl)-2-{[bis(2-hydroxyeth-yl)amino]methyl}imi-dazo[1,2-a]pyridine-5-carboxamide] | < 2
12 | O=C(NCC1CCCCC1)c1cccc2nc(CCl)cn12 [Compound 142, 2-(chloromethyl)-N-(cyclohexylmethyl)imi-dazo[1,2-a]pyridine-5-carboxamide] | < 2
13 | CCOC(=O)Cc1cn2c(NC(=O)CC34CC5CC(CC(C5)C3)C4)cccc2n1 [Compound 145, ethyl {5-[(adamantan-1-ylacetyl)amino]imi-dazo[1,2-a]pyridin-2-yl}acetate] | < 2
14 | CCCNC(=O)Cc1cn2c(C(=O)NCC34CC5CC(CC(C5)C3)C4)cccc2n1 [Compound 146, N-(adamantan-1-ylmethyl)-2-[2-oxo-2-(propylamino)ethyl]imi-dazo[1,2-a]pyridine-5-carboxamide] | < 2

Same assay, conditions: SH-SY5Y cells; 50% decrease in fluorescence response to 80 μM BzATP; read-out: IC50

Row | Compound | IC50 [µM]
15 | O=C(NCC12CC3CC(CC(C3)C1)C2)c1cccc2nc(CCNC3CCNCC3)cn12 [Compound 119, 2-[2-(piperidin-4-ylamino)-ethyl]-imidazo[1,2-a]pyridine-5-carboxylic acid (adamantan-1-ylmethyl)-amide] | < 2
16 | O=C(NCC12CC3CC(CC(C3)C1)C2)c1cccc2nc(CCN3C(=O)c4ccccc4C3=O)cn12 [Compound 137, N-(adamantan-1-ylmethyl)-2-[2-(1,3-dioxo-1,3-dihydro-2H-isoindol-2-yl)ethyl]imidazo[1,2-a]pyridine-5-carboxamide] | < 2
17 | CC(C)CC(CNC(=O)c1cccc2nc(CCl)cn12)c1ccccc1 (stereo not drawn) [Compound 138, 2-(chloromethyl)-N-(4-methyl-2-phenylpentyl)imidazo[1,2-a]pyridine-5-carboxamide] | < 2
18 | CCOC(=O)Cc1cn2c(C(=O)NCC(CC(C)C)c3ccccc3)cccc2n1 (stereo not drawn) [Compound 139, ethyl {5-[(4-methyl-2-phenylpentyl)car-bamoyl]imidazo[1,2-a]pyridin-2-yl}acetate] | < 2
19 | CCOC(=O)Cc1cn2c(C(=O)NCC3CCCCC3)cccc2n1 [Compound 141, ethyl {5-[(cyclohexylmethyl)car-bamoyl]imidazo[1,2-a]pyridin-2-yl}acetate] | < 2
20 | CCOC(=O)c1cn2c(NC(=O)CC34CC5CC(CC(C5)C3)C4)cccc2n1 [Compound 143, ethyl 5-[(adamantan-1-ylacetyl)amino]imidazo[1,2-a]pyridine-2-carboxylate] | < 2
21 | CC(C)NC(=O)Cc1cn2c(C(=O)NCC34CC5CC(CC(C5)C3)C4)cccc2n1 [Compound 150, N-(adamantan-1-ylmethyl)-2-[2-(isopropylamino)-2-oxoethyl]imidazo[1,2-a]pyridine-5-carboxamide] | < 2

Continued, values first:

Row | IC50 [µM] | Compound
22 | < 2 | NC1CCN(CCc2cn3c(C(=O)NCC45CC6CC(CC(C6)C4)C5)cccc3n2)CC1 [Compound 117, 2-[2-(4-amino-piperidin-1-yl)-ethyl]-imidazo[1,2-a]pyridine-5-carboxylic acid (adamantan-1-ylmethyl)-amide]
23 | < 2 | NC1CCCN(CCc2cn3c(C(=O)NCC45CC6CC(CC(C6)C4)C5)cccc3n2)C1 (stereo not drawn) [Compound 118, 2-[2-(3-amino-piperidin-1-yl)-ethyl]-imidazo[1,2-a]pyridine-5-carboxylic acid (adamantan-1-ylmethyl)-amide]
24 | < 2 | NC1CCN(Cc2cn3c(C(=O)NCC45CC6CC(CC(C6)C4)C5)cccc3n2)CC1 [Compound 120, N-(adamantan-1-ylmethyl)-2-[(4-aminopiperidin-1-yl)methyl]imidazo[1,2-a]pyridine-5-carboxamide]
25 | < 2 | NC1CCCN(Cc2cn3c(C(=O)NCC45CC6CC(CC(C6)C4)C5)cccc3n2)C1 (stereo not drawn) [Compound 121, N-(adamantan-1-ylmethyl)-2-[(3-aminopiperidin-1-yl)methyl]imidazo[1,2-a]pyridine-5-carboxamide]
26 | < 2 | N[C@@H]1CCN(C(=O)c2cn3c(C(=O)NCC45CC6CC(CC(C6)C4)C5)cccc3n2)C1 [Compound 129, N-(adamantan-1-ylmethyl)-2-{[(3R)-3-aminopyrrolidin-1-yl]carbonyl}imidazo[1,2-a]pyridine-5-carboxamide]
27 | < 2 | NC1CN(Cc2cn3c(C(=O)NCC45CC6CC(CC(C6)C4)C5)cccc3n2)C1 [Compound 130, N-(adamantan-1-ylmethyl)-2-[(3-aminoazetidin-1-yl)methyl]imidazo[1,2-a]pyridine-5-carboxamide]
28 | < 2 | O=C(NCC12CC3CC(CC(C3)C1)C2)c1cccc2nc(CN3CCC(O)C3)cn12 (stereo not drawn) [Compound 134, N-(adamantan-1-ylmethyl)-2-[(3-hydroxypyrrolidin-1-yl)methyl]imidazo[1,2-a]pyridine-5-carboxamide]
29 | < 2 | O=C(NCC12CC3CC(CC(C3)C1)C2)c1cccc2nc(CN3CCCC(O)C3)cn12 (stereo not drawn) [Compound 135, N-(adamantan-1-ylmethyl)-2-[(3-hydroxypiperidin-1-yl)methyl]imidazo[1,2-a]pyridine-5-carboxamide]
30 | < 2 | C[C@H]1CN(C(=O)Cc2cn3c(C(=O)NCC45CC6CC(CC(C6)C4)C5)cccc3n2)CCN1 [Compound 140, N-(adamantan-1-ylmethyl)-2-{2-[(3S)-3-methylpiperazin-1-yl]-2-oxoethyl}imidazo[1,2-a]pyridine-5-carboxamide]
31 | < 2 | O=C(Cc1cn2c(C(=O)NCC34CC5CC(CC(C5)C3)C4)cccc2n1)NCC1CC1 [Compound 147, N-(adamantan-1-ylmethyl)-2-{2-[(cyclopropylmeth-yl)amino]-2-oxoethyl}imidazo[1,2-a]pyridine-5-carboxamide]
32 | < 2 | O=C(Cc1cn2c(C(=O)NCC34CC5CC(CC(C5)C3)C4)cccc2n1)NC1CC1 [Compound 148, N-(adamantan-1-ylmethyl)-2-[2-(cyclopropylamino)-2-oxoethyl]imidazo[1,2-a]pyridine-5-carboxamide]
33 | < 2 | O=C(Cc1cn2c(C(=O)NCC34CC5CC(CC(C5)C3)C4)cccc2n1)NC1CCCCC1 [Compound 149, N-(adamantan-1-ylmethyl)-2-[2-(cyclohexylamino)-2-oxoethyl]imidazo[1,2-a]pyridine-5-carboxamide]
